# Assay results as given in paper PMC9146984, “A Novel Proline-Rich Cathelicidin from the Alpaca Vicugna pacos with Potency to Combat Antibiotic-Resistant Bacteria: Mechanism of Action and the Functional Role of the C-Terminal Region” (Membranes, 2022).
# Where two headings read alike, the source gives them in different places. Where a SMILES comes first, the peptide text is derived from it.
# What was measured:
# [1] = system: human red blood cells (hRBC); assay: Hemolysis (hemoglobin release assay); assay type: cell-based; conditions: 1.5 h incubation (Figure 3C)
# Description: Hemolytic activity of the peptides was tested against the fresh suspension of human red blood cells (hRBC) using the hemoglobin release assay as described previously. Two experiments were performed with the hRBC from blood samples of independent donors. The quantitative data were represented as average means with standard deviations. The colorimetric 3-(4,5-dimethylthiazol-2-yl)-2,5-diphenyltetrazolium bromide (MTT) dye reduction assay was used to determine the cytotoxicity of the peptides against transformed human embryonic kidney cells (HEK293T). 10^4 cells per well in Dulbecco’s modified Eagle’s medium (DMEM/F12) supplemented with 10% fetal bovine serum (FBS; Invitrogen, Waltham, MA, USA) were placed into 96-well plates and then cultured in the CO2-incubator (5% CO2, 37 °C). After the media were removed, the peptides were dissolved in 100 µL of the same medium and added to cell cultures at different final concentrations. 20 h later, 20 μL of MTT (5 mg/mL; Sigma, St. Louis, MO, USA) was added to each well, and the plates were incubated for 4 h at 37 °C. Then, the media were discarded and a 100 µL dimethyl sulfoxide-isopropanol mixture at a ratio of 1:1 (v/v) was added to each well to dissolve the crystallized formazan. The absorbance at 570 nm was measured by a microplate reader AF2200 (Eppendorf, Hamburg, Germany). […]
# [2] = system: E. coli ML-35p cytoplasmic membrane; assay: Cytoplasmic membrane permeabilization (ONPG hydrolysis); assay type: cell-based, Escherichia coli; conditions: PBS, 37 °C, OD405, 2.5 mM ONPG; two independent experiments
# Description: To examine the ability of the peptides to affect the barrier function of the cytoplasmic bacterial membrane, we slightly modified the previously described procedure with the use of the E. coli ML-35p strain constitutively expressing cytoplasmic β-galactosidase but lacking lactose permease. The state of the E. coli ML-35p inner membrane was assessed based on its permeability to chromogenic marker o-nitrophenyl-β-D-galactopyranoside (ONPG, AppliChem, Darmstadt, Germany), which is the β-galactosidase substrate. The cells were incubated in the trypticase soy broth (TSB) for 16 h at 37 °C, washed three times with phosphate-buffered saline (PBS, pH 7.4) to remove residual growth media, adjusted to the concentration of 2.5 × 10^8 CFU/mL, and stored on ice until used. The assay was performed in PBS as well. The final concentration of E. coli ML-35p cells was 2.5 × 10^7 CFU/mL. The concentration of ONPG was 2.5 mM. Peptide samples were placed in the wells of a 96-well plate with a non-binding surface (NBS, Corning #3641), and the optical density (OD) of the solution rose due to the appearance of o-nitrophenol was measured at 405 nm using a microplate reader AF2200 (Eppendorf, Hamburg, Germany). The final volume in each well was 200 µL. Assays were performed at 37 °C under stirring at 500 rpm. Control experiments were performed under the same conditions without adding a peptide. Two independent experiments were performed, and the curve pattern was similar.
# [3] = system: human embryonic kidney cells (HEK293T); assay: Cytotoxicity (MTT assay); assay type: cell-based; conditions: HEK293T, 20 h incubation, MTT (Figure 3D)
# Description: Hemolytic activity of the peptides was tested against the fresh suspension of human red blood cells (hRBC) using the hemoglobin release assay as described previously. Two experiments were performed with the hRBC from blood samples of independent donors. The quantitative data were represented as average means with standard deviations. The colorimetric 3-(4,5-dimethylthiazol-2-yl)-2,5-diphenyltetrazolium bromide (MTT) dye reduction assay was used to determine the cytotoxicity of the peptides against transformed human embryonic kidney cells (HEK293T). 10^4 cells per well in Dulbecco’s modified Eagle’s medium (DMEM/F12) supplemented with 10% fetal bovine serum (FBS; Invitrogen, Waltham, MA, USA) were placed into 96-well plates and then cultured in the CO2-incubator (5% CO2, 37 °C). After the media were removed, the peptides were dissolved in 100 µL of the same medium and added to cell cultures at different final concentrations. 20 h later, 20 μL of MTT (5 mg/mL; Sigma, St. Louis, MO, USA) was added to each well, and the plates were incubated for 4 h at 37 °C. Then, the media were discarded and a 100 µL dimethyl sulfoxide-isopropanol mixture at a ratio of 1:1 (v/v) was added to each well to dissolve the crystallized formazan. The absorbance at 570 nm was measured by a microplate reader AF2200 (Eppendorf, Hamburg, Germany). The optical density in the wells containing cells cultured without the peptides was assumed to represent 100% cell viability. Two independent experiments were performed for each peptide.
# [4] = system: E. coli BL21 (DE3) Star cell extract, coupled transcription/translation of EGFP; assay: In vitro transcription/translation inhibition assay (cell-free EGFP synthesis); assay type: biochemical, Escherichia coli; conditions: EGFP fluorescence, 2 h, 30 °C; at least two independent experiments in triplicate; read-out: IC50, inhibition of in vitro protein synthesis in the E. coli cell-free system
# Description: To investigate the effect of cathelicidins on the coupled transcription/translation process, the peptides were added to a cell-free protein synthesis (CFPS) reaction mix with a plasmid encoding enhanced green fluorescent protein (EGFP) variant (F64L, S65T, Q80R, F99S, M153T, and V163A) under control of the T7 promoter as described previously with some modifications. Briefly, the peptides were dissolved in 0.1% BSA in water. Bac7[1–22] was used as a positive control inhibitor. The fluorescence of the sample without inhibitor was set as the 100% value. The reaction proceeded for 2 h in 96-well v-bottom black polystyrene microplates in a plate shaker (30 °C, 1000 rpm). The fluorescence of the synthesized EGFP was measured with the microplate reader AF2200 (λExc = 488 nm, λEm = 510 nm; Eppendorf, Hamburg, Germany). The experimental data were obtained from at least two independent experiments performed in triplicate. Non-linear regression curves were generated using GraphPad Prism v.8.0.1 (GraphPad Software Inc., San Diego, CA, USA).
# E. coli = assay: Antimicrobial assay (MIC), E. coli strains; assay type: cell-based, Escherichia coli; conditions: Mueller–Hinton broth without NaCl
# Description: (§1) The reduction of resazurin to resorufin was measured.
# E. coli BW25113 ΔsbmA = assay type: cell-based, Escherichia coli; conditions: Mueller–Hinton broth, 24 h, 37 °C, median
# Description: as §1
# E. coli BW25113 ΔompF = assay type: cell-based, Escherichia coli; conditions: Mueller–Hinton broth, 24 h, 37 °C, median
# Description: as §1
# E. coli BW25113 ΔmdtM = assay type: cell-based, Escherichia coli; conditions: Mueller–Hinton broth, 24 h, 37 °C, median
# Description: as §1
# E. coli ATCC 25922 = assay type: cell-based, Escherichia coli; conditions: ATCC 25922, 24 h
# Description: as §1
# E. coli BW25113 = assay type: cell-based, Escherichia coli; conditions: BW25113, 24 h
# Description: as §1
compound,measurement,setting,value
Melittin [reference compound],concentration at which almost all cells were completely lysed,[1],< 4 µM
same,effect on E. coli ML-35p cytoplasmic membrane permeability for ONPG,[2],significant damage
same,concentration at which almost all cells were completely lysed,[3],< 4 µM
CC[C@H](C)[C@H](NC(=O)[C@H](CCCNC(=N)N)NC(=O)[C@@H](N)CCCNC(=N)N)C(=O)N[C@@H](CCCNC(=N)N)C(=O)N[C@@H](CCCNC(=N)N)C(=O)N1CCC[C@H]1C(=O)N[C@@H](CCCNC(=N)N)C(=O)N[C@@H](CC(C)C)C(=O)N1CCC[C@H]1C(=O)N[C@@H](CCCNC(=N)N)C(=O)N1CCC[C@H]1C(=O)N[C@@H](CCCNC(=N)N)C(=O)N[C@H](C(=O)N1CCC[C@H]1C(=O)N[C@@H](CCCNC(=N)N)C(=O)N1CCC[C@H]1C(=O)O)C(C)C [VicBac[1-16]] (H-RRIRRPRLPRPRVPRP-OH),IC50,[4],~4 µM
same,killing of E. coli under salt-free conditions,E. coli,4 to 8 µM
CC[C@H](C)[C@H](NC(=O)[C@H](CCCNC(=N)N)NC(=O)[C@@H]1CCCN1C(=O)[C@H](CCCNC(=N)N)NC(=O)[C@@H]1CCCN1C(=O)[C@@H](NC(=O)[C@H](CCCNC(=N)N)NC(=O)[C@@H]1CCCN1C(=O)[C@H](CCCNC(=N)N)NC(=O)[C@@H]1CCCN1C(=O)[C@H](CC(C)C)NC(=O)[C@H](CCCNC(=N)N)NC(=O)[C@@H]1CCCN1C(=O)[C@H](CCCNC(=N)N)NC(=O)[C@H](CCCNC(=N)N)NC(=O)[C@@H](NC(=O)[C@H](CCCNC(=N)N)NC(=O)[C@@H](N)CCCNC(=N)N)[C@@H](C)CC)C(C)C)C(=O)O [VicBac[1-18]] (H-RRIRRPRLPRPRVPRPRI-OH; N-terminus and C-terminus assumed),"Minimum inhibitory concentration, E. coli strain ΔsbmA",E. coli BW25113 ΔsbmA; 0.9% NaCl: +,> 64 µM
same,"Minimum inhibitory concentration, E. coli strain ΔsbmA",E. coli BW25113 ΔsbmA; 0.9% NaCl: −,4 µM
same,"Minimum inhibitory concentration, E. coli strain ΔompF",E. coli BW25113 ΔompF; 0.9% NaCl: +,16 µM
same,"Minimum inhibitory concentration, E. coli strain ΔompF",E. coli BW25113 ΔompF; 0.9% NaCl: −,8 µM
same,"Minimum inhibitory concentration, E. coli strain ΔmdtM",E. coli BW25113 ΔmdtM; 0.9% NaCl: +,2 µM
same,"Minimum inhibitory concentration, E. coli strain ΔmdtM",E. coli BW25113 ΔmdtM; 0.9% NaCl: −,4 µM
same,"Minimum inhibitory concentration, E. coli strain ATCC 25922",E. coli ATCC 25922,2 µM
same,"Minimum inhibitory concentration, E. coli strain BW25113",E. coli BW25113,4 µM
